Values joined by “and” are separate entries in the source; they are usually repeats but may differ in a detail not shown here. Equal values may be shown once. Read-outs that look alike come from different tables or passages of the source.
What was measured:
[1] = tested on: cells from the thymus of normal BALB/c mice (lymphocyte proliferation); assay: comitogen-induced thymocyte proliferation procedure (LAF); assay type: cell-based; conditions: read-out: LAF IC50
Description: (§1) Immunosuppressive activity for representative compounds of this invention was evaluated in an in vitro standard pharmacological test procedure to measure lymphocyte proliferation (LAF) and in an in vivo standard pharmacological test procedure which evaluated the survival time of a pinch skin graft.
Briefly, cells from the thymus of normal BALB/c mice are cultured for 72 hours with PHA and IL-1 and pulsed with tritiated thymidine during the last six hours. […] Cells are harvested and incorporated radioactivity is determined. Inhibition of lymphoproliferation is assessed as percent change in counts per minute from nondrug treated controls. For each compound evaluated, rapamycin was also evaluated for the purpose of comparison. An IC50 was obtained for each test compound as well as for rapamycin. […] The results obtained are provided as an IC50.

[2] = stability under physiological conditions (degradative hydrolysis in phosphate buffer); assay type: physicochemical
Description: The table below provides the […] in 0.1M phosphate buffer (pH 7.4) at 37° C.

[3] = tested on: pinch skin graft from male BALB/c donors transplanted to male C3 H(H-2K) recipients; assay: survival time of pinch skin graft (allograft); assay type: in vivo, male C3 H(H-2K) recipients (mice); conditions: 4 mg/kg, intraperitoneally or orally; untreated controls rejected within 6-7 days
Description: as §1
Representative compounds of this invention were also evaluated in an in vivo test procedure designed to determine the survival time of pinch skin graft from male BALB/c donors transplanted to male C3 H(H-2K) recipients. The method is adapted from Billingham R. E. and Medawar P. B., J. Exp. Biol. 28:385-402, (1951 ). Briefly, a pinch skin graft from the donor was grafted on the dorsum of the recipient as a allograft, and an isograft was used as control in the same region. The recipients were treated with either varying concentrations of test compounds intraperitoneally or orally. Rapamycin was used as a test control. Untreated recipients serve as rejection control. The graft was monitored daily and observations were recorded until the graft became dry and formed a blackened scab. This was considered as the rejection day. The mean graft survival time (number of days±S.D.) of the drug treatment group was compared with the control group. […] Results are expressed as the mean survival time in days. Untreated (control) pinch skin grafts are usually rejected within 6-7 days. […]

[4] = Mus musculus, Lymphocyte, 72 h culture with PHA and IL-1, tritiated thymidine during last six hours
[5] = 72 h culture with PHA and IL-1, tritiated thymidine during last six hours

Q: Which IC50 [1, 4] does the source give for `CO/N=C1/C[C@@H]([C@H](C)C[C@@H]2CC[C@@H](OC(=O)COCC(=O)OCc3ccccc3)[C@H](OC)C2)OC(=O)[C@@H]2CCCCN2C(=O)C(=O)[C@]2(O)O[C@@H](CC[C@H]2C)C[C@H](OC)/C(C)=C/C=C/C=C/[C@@H](C)C[C@@H](C)C(=O)[C@H](OC)[C@H](O)/C(C)=C/[C@H]1C` [Example 8, Rapamycin (Z)-27-(O-methoxime), 42-ester with (5-benzyloxycarbonylmethoxy) acetic acid] here?
A: Its IC50 is 0.421 µM.

Q: With `CO/N=C1\C[C@@H]([C@H](C)C[C@@H]2CC[C@@H](O)[C@H](OC)C2)OC(=O)[C@@H]2CCCCN2C(=O)C(=O)[C@]2(O)O[C@@H](CC[C@H]2C)C[C@H](OC)/C(C)=C/C=C/C=C/[C@@H](C)C[C@@H](C)C(=O)[C@H](OC)[C@H](O)/C(C)=C/[C@H]1C` [Rapamycin (E)-27-(O-methoxime), rapamycin (E)-27-(O-methoxime)] as the compound, how does the half-life ([2]; 0.1m phosphate buffer, pH 7.4) read?
A: Its half-life is 59 h.

Q: With `CO/N=C1/C[C@@H]([C@H](C)C[C@@H]2CC[C@@H](O)[C@H](OC)C2)OC(=O)[C@@H]2CCCCN2C(=O)C(=O)[C@]2(O)O[C@@H](CC[C@H]2C)C[C@H](OC)/C(C)=C/C=C/C=C/[C@@H](C)C[C@@H](C)C(=O)[C@H](OC)[C@H](O)/C(C)=C/[C@H]1C` [Rapamycin (Z)-27-(O-methoxime), rapamycin (Z)-27-(O-methoxime)] as the compound, how does the half-life ([2]; 0.1m phosphate buffer, pH 7.4) read?
A: Its half-life is 156 h.

Q: What does the source list for `CO[C@H]1C[C@@H]2CC[C@@H](C)[C@@](O)(O2)C(=O)C(=O)N2CCCC[C@H]2C(=O)O[C@H]([C@H](C)C[C@@H]2CC[C@@H](O)[C@H](OC)C2)CC(=O)[C@H](C)/C=C(\C)[C@@H](O)[C@@H](OC)C(=O)[C@H](C)C[C@H](C)/C=C/C=C/C=C/1C` [Rapamycin]?
A: half-life ([2]; 0.1M phosphate buffer (pH 7.4) at 37° C., read-out: Half Life (converted)): 13 h; Skin Graft mean survival time (days ± SD) [3]: 12.0 ± 1.7 days; IC50 ([1]; Mus musculus, Lymphocyte): 0.0004 to 0.0051 µM

Q: For `CO[C@H]1C[C@@H]2CC[C@@H](C)[C@@](O)(O2)C(=O)C(=O)N2CCCC[C@H]2C(=O)O[C@H]([C@H](C)C[C@@H]2CC[C@@H](OC(=O)CC[C@H](NC(=O)OC(C)(C)C)C(=O)OC(C)(C)C)[C@H](OC)C2)CC(=O)[C@H](C)/C=C(\C)[C@@H](O)[C@@H](OC)C(=O)[C@H](C)C[C@H](C)/C=C/C=C/C=C/1C` [rapamycin 42-ester with (S)-5-tertbutoxy-4-tertbutoxycarbonylamino-5-oxo-pentanoic acid, reference compound], which half-life ([2]; 0.1m phosphate buffer, pH 7.4) is on record?
A: The half-life was 24 h.

Q: Which IC50 [1, 5] does the source give for `CO/N=C1\C[C@@H]([C@H](C)C[C@@H]2CC[C@@H](OC(=O)CC[C@H](NC(=O)OC(C)(C)C)C(=O)OC(C)(C)C)[C@H](OC)C2)OC(=O)[C@@H]2CCCCN2C(=O)C(=O)[C@]2(O)O[C@@H](CC[C@H]2C)C[C@H](OC)/C(C)=C/C=C/C=C/[C@@H](C)C[C@@H](C)C(=O)[C@H](OC)[C@H](O)/C(C)=C/[C@H]1C` [Example 11, Rapamycin (E)-27-(O-methoxime), 42-ester with (S)-5-tertbutoxy-4-tertbutoxycarbonylamino-5-oxo-pentanoic acid] here?
A: Its IC50 is 0.321 µM.

Q: And the IC50 [1, 4]?
A: Its IC50 is 0.372 µM.

Q: For `CO/N=C1/C[C@@H]([C@H](C)C[C@@H]2CC[C@@H](OC(=O)CN(C)C)[C@H](OC)C2)OC(=O)[C@@H]2CCCCN2C(=O)C(=O)[C@]2(O)O[C@@H](CC[C@H]2C)C[C@H](OC)/C(C)=C/C=C/C=C/[C@@H](C)C[C@@H](C)C(=O)[C@H](OC)[C@H](O)/C(C)=C/[C@H]1C` [Example 7, Rapamycin (Z)-27-(O-methoxime), 42-ester with 2-N,N-dimethylglycine], which IC50 [1, 4] is on record?
A: The IC50 was 0.291 µM.

Q: For `CO/N=C1\C[C@@H]([C@H](C)C[C@@H]2CC[C@@H](OC(=O)Oc3ccc([N+](=O)[O-])cc3)[C@H](OC)C2)OC(=O)[C@@H]2CCCCN2C(=O)C(=O)[C@]2(O)O[C@@H](CC[C@H]2C)C[C@H](OC)/C(C)=C/C=C/C=C/[C@@H](C)C[C@@H](C)C(=O)[C@H](OC)[C@H](O)/C(C)=C/[C@H]1C` [Example 9, Rapamycin (E)-27-(O-methoxime), 42-ester with (4-nitrophenoxy)carbonic acid], which IC50 [1, 5] is on record?
A: Its IC50 is 0.047 µM.

Q: What about the IC50 [1, 4] of the same compound?
A: The IC50 was 0.077 µM.

Q: For `CO[C@H]1C[C@@H]2CC[C@@H](C)[C@@](O)(O2)C(=O)C(=O)N2CCCC[C@H]2C(=O)O[C@H]([C@H](C)C[C@@H]2CC[C@@H](OC(=O)CC[C@H](NC(=O)OC(C)(C)C)C(=O)OC(C)(C)C)[C@H](OC)C2)C/C(=N/OCC#N)[C@H](C)/C=C(\C)[C@@H](O)[C@@H](OC)C(=O)[C@H](C)C[C@H](C)/C=C/C=C/C=C/1C` [Example 3, Rapamycin (Z)-27-O-(cyanomethyl)-oxime, 42-ester with N-(tert-butoxycarbonyl)-α-O-(tert-butyl)-L-glutamic Acid], which IC50 [1, 4] is on record?
A: The IC50 was 0.432 µM.

Q: Which results are given for `CO/N=C1/C[C@@H]([C@H](C)C[C@@H]2CC[C@@H](OC(=O)CC[C@H](NC(=O)OC(C)(C)C)C(=O)OC(C)(C)C)[C@H](OC)C2)OC(=O)[C@@H]2CCCCN2C(=O)C(=O)[C@]2(O)O[C@@H](CC[C@H]2C)C[C@H](OC)/C(C)=C/C=C/C=C/[C@@H](C)C[C@@H](C)C(=O)[C@H](OC)[C@H](O)/C(C)=C/[C@H]1C` [Example 10, Rapamycin (Z)-27-(O-methoxime), 42-ester with (S)-5-tertbutoxy-4-tertbutoxycarbonylamino-5-oxo-pentanoic acid]?
A: half-life ([2]; 0.1m phosphate buffer, pH 7.4): 264 h; stability toward degradation compared with rapamycin or the corresponding oxime or ester alone ([2]; pH 7.4): significantly more stable toward degradation than rapamycin, or the corresponding oxime or ester alone; Skin Graft mean survival time (days ± SD) [3]: 10.0 ± 0.2 days and 11.2 ± 0.8 days; IC50 [1, 4]: 0.0041 µM
